Literature values in US8293845B2, “Irritation mitigating polymers and uses therefor” (priority 2006, dated 2012).

Conditions: from Schoenberg, Household & Personal Products Industry 1979

SMILES: CCCCCCCCCCCCOS(=O)(=O)[O-].[Na+] [sodium lauryl sulfate]
- eye irritation: causes significant eye irritation
